This data set in a line: Solubility of verteporfin derivative compounds in water and buffer (pH = 2). The class given is physicochemical. The conditions noted are these: for Buffer (pH = 2) result, fraction dissolved / Buffer (pH = 2) result: phosphate buffer pH = 2; for Water result: at the amount per volume in mg/mL.

With `C=Cc1c(C)c2cc3nc(cc4[nH]c(cc5nc(cc1[nH]2)C(C)=C5CCC(=O)N[C@@H](CC(=O)O)C(=O)O)c(CCC(=O)OC)c4C)[C@@]1(C)C3=CC=C(C(=O)OC)[C@H]1C(=O)OC` [Compound T1, (2S)-2-[3-[(23 S,24R)-14-ethenyl-5-(3-methoxy-3-oxopropyl)-22,23-bis(methoxycarbonyl)-4,10,15,24-tetramethyl-25,26,27,28-tetraazahexacyclo[16.6.1.13,6.18,11.113,16.019,24]octacosa-1,3,5,7,9,11(27),12,14,16,18(25), 19,21-dodecaen-9-yl]propanoylamino]butanedioic acid], the “Buffer (pH = 2) result, fraction dissolved” value (“Buffer … fraction dissolved” for short) is listed as ~20% and the Water result is listed as “insoluble”.
In the case of `C=Cc1c(C)c2cc3nc(cc4[nH]c(cc5nc(cc1[nH]2)C(C)=C5CCC(=O)N[C@@H](CC(=O)O)C(=O)O)c(CCC(=O)N[C@@H](CC(=O)O)C(=O)O)c4C)[C@@]1(C)C3=CC=C(C(=O)OC)[C@H]1C(=O)OC` [Compound T3, (2S)-2-[3-[(23 S,24R)-14-ethenyl-5-[3-[[(1 S)-1,2-dicarboxyethyl]amino]-3-oxo-propyl]-22,23-bis(methoxycarbonyl)-4,10,15,24-tetramethyl-25,26,27,28-tetraazahexacyclo[16.6.1.13,6.18,11.113,16.019,24]octacosa-1,3,5,7,9,11(27),12,14,16,18(25), 19,21-dodecaen-9-yl]propanoylamino]butanedioic acid], the “Buffer (pH = 2) result” value is “insoluble” and the Water result was “insoluble”.
Turning to `C=Cc1c(C)c2cc3nc(cc4[nH]c(cc5nc(cc1[nH]2)C(C)=C5CCC(=O)NCCC(=O)N[C@@H](CC(=O)O)C(=O)O)c(CCC(=O)OC)c4C)[C@@]1(C)C3=CC=C(C(=O)OC)[C@H]1C(=O)OC` [Compound T4, (2S)-2-[3-[3-[(23 S,24R)-14-ethenyl-5-(3-methoxy-3-oxopropyl)-22,23-bis(methoxycarbonyl)-4,10,15,24-tetramethyl-25,26,27,28-tetraazahexacyclo[16.6.1.13,6.18,11.113,16.019,24]octacosa-1,3,5,7,9,11(27),12,14,16,18(25), 19,21-dodecaen-9-yl]propanoylamino]propanoylamino]butanedioic acid], the “Buffer … fraction dissolved” value is on record as ~80% and the Water result is “insoluble”.
`C=Cc1c(C)c2cc3nc(cc4[nH]c(cc5nc(cc1[nH]2)C(C)=C5CCC(=O)NCCCC[C@H](N)C(=O)O)c(CCC(=O)OC)c4C)[C@@]1(C)C3=CC=C(C(=O)OC)[C@H]1C(=O)OC` [Compound T5, (2S)-2-amino-6-[3-[(23 S,24R)-14-ethenyl-5-(3-methoxy-3-oxopropyl)-22,23-bis(methoxycarbonyl)-4,10,15,24-tetramethyl-25,26,27,28-tetraazahexacyclo[16.6.1.13,6.18,11.113,16.019,24]octacosa-1,3,5,7,9,11(27),12,14,16,18(25), 19,21-dodecaen-9-yl]propanoylamino]hexanoic acid]: the “Buffer (pH = 2) result” value is reported as “soluble” and the Water result is recorded as “soluble”.
For the compound `C=Cc1c(C)c2cc3nc(cc4[nH]c(cc5nc(cc1[nH]2)C(C)=C5CCC(=O)NCCCC[C@H](N)C(=O)O)c(CCC(=O)NCCCC[C@H](N)C(=O)O)c4C)[C@@]1(C)C3=CC=C(C(=O)OC)[C@H]1C(=O)OC` [Compound T7, (2S)-2-amino-6-[3-[(23 S,24R)-14-ethenyl-5-[3-[[(5 S)-5-amino-5-carboxy-pentyl]amino]-3-oxo-propyl]-22,23-bis(methoxycarbonyl)-4,10,15,24-tetramethyl-25,26,27,28-tetraazahexacyclo[16.6.1.13,6.18,11.113,16.019,24]octacosa-1,3,5,7,9,11(27),12,14,16,18(25), 19,21-dodecaen-9-yl]propanoylamino]hexanoic acid], the “Buffer (pH = 2) result” value is “soluble” and the Water result is given as “soluble”.
Turning to `C=Cc1c(C)c2cc3nc(cc4[nH]c(cc5nc(cc1[nH]2)C(C)=C5CCC(=O)OCCOCCOCCOC)c(CCC(=O)OC)c4C)[C@@]1(C)C3=CC=C(C(=O)OC)[C@H]1C(=O)OC` [Compound T8, Methyl 3-[(23S,24R)-14-ethenyl-9-[3-[2-[2-(2-methoxyethoxy)ethoxy]ethoxy]-3-oxo-propyl]-22,23-bis(methoxycarbonyl)-4,10,15,24-tetramethyl-25,26,27,28-tetraazahexacyclo[16.6.1.13,6.18,11.113,16.019,24]octacosa-1,3,5,7,9,11(27),12,14,16,18(25), 19,21-dodecaen-5-yl]propanoate], the “Buffer (pH = 2) result” value was “insoluble” and the Water result was “insoluble”.
As for `C=Cc1c(C)c2cc3nc(cc4[nH]c(cc5nc(cc1[nH]2)C(C)=C5CCC(=O)OCCOCCOCCOCCOCCOCCOCCOC)c(CCC(=O)OC)c4C)[C@@]1(C)C3=CC=C(C(=O)OC)[C@H]1C(=O)OC` [Compound T10, Methyl 3-[(23S,24R)-14-ethenyl-9-[3-[2-[2-[2-[2-[2-[2-(2-methoxyethoxy)ethoxy]ethoxy]ethoxy]ethoxy]ethoxy]ethoxy]-3-oxo-propyl]-22,23-bis(methoxycarbonyl)-4,10,15,24-tetramethyl-25,26,27,28-tetraazahexacyclo[16.6.1.13,6.18,11.113,16.019,24]octacosa-1,3,5,7,9,11(27),12,14,16,18(25), 19,21-dodecaen-5-yl]propanoate], the “Buffer (pH = 2) result” value is “insoluble” and the Water result was “insoluble”.
Turning to `C=Cc1c(C)c2cc3nc(cc4[nH]c(cc5nc(cc1[nH]2)C(C)=C5CCC(=O)NCCN(C)C)c(CCC(=O)OC)c4C)[C@@]1(C)C3=CC=C(C(=O)OC)[C@H]1C(=O)OC` [Compound T11, Methyl 3-[(23 S,24R)-14-ethenyl-9-[3-[2-(dimethylamino)ethylamino]-3-oxo-propyl]-22,23-bis(methoxycarbonyl)-4,10,15,24-tetramethyl-25,26,27,28-tetraazahexacyclo[16.6.1.13,6.18,11.113,16.019,24]octacosa-1,3,5,7,9,11(27), 12,14,16,18(25), 19,21-dodecaen-5-yl]propanoate], the “Buffer … fraction dissolved” value is listed as ~70% and the Water result is recorded as “insoluble”.
Consider `C=Cc1c(C)c2cc3nc(cc4[nH]c(cc5nc(cc1[nH]2)C(C)=C5CCC(=O)N(C)CCN(C)C)c(CCC(=O)OC)c4C)[C@@]1(C)C3=CC=C(C(=O)OC)[C@H]1C(=O)OC` [Compound T14, Methyl 3-[(23S,24R)-14-ethenyl-9-[3-[2-(dimethylamino)ethyl-methyl-amino]-3-oxo-propyl]-22,23-bis(methoxycarbonyl)-4,10,15,24-tetramethyl-25,26,27,28-tetraazahexacyclo[16.6.1.13,6.18,11.113,16.019,24]octacosa-1,3,5,7,9,11(27), 12,14,16,18(25), 19,21-dodecaen-5-yl]propanoate], for which the “Buffer (pH = 2) result” value was “soluble” and the Water result is “insoluble”.

The record behind these values is US11331304B2, “YAP1 inhibitors and methods” (The Jackson Laboratory, priority 2016, dated 2022).
